The compounds below were run against benzodiazepine receptor (assay: benzodiazepine receptor binding assay (NovaScreen), [3H]Flunitrazipam radioligand). Settings: commercially available reference samples (Table 3 footnote).
Set-up: species or system bovine
Source text: After the final compounds are formed using the inventive reaction apparatus, method and system, they are individually tested for biological activity once they are isolated. For example, the method of Sweetnam, et al, Molecular Pharmacology 1986; 29:299 employing bovine cortical membranes as a receptor source and a radiolabeled benzodiazepine, such as Flunitrazepam, to determine competitive ligand binding to the benzodiazepine receptor (central [brain] localized) and some quantitative measure of relative binding potency such as KD or IC50 values. Performing this type of assay serves two purposes: 1) to discover new compounds with biological activity in a given biological screening assay and 2) the development of a relationship between the structural variations contained within the series and biological potency. This second utility is known as development of a structure activity relationship (SAR). This type of assay can be done using the compounds isolated from the array synthesis for any receptor binding screen or assay (screening for receptor agonists or antagonists), enzyme functional assays (measuring competitive or noncompetitive inhibition of the catalyzed reaction), and the like. This strategy may be used to screen for pharmaceutical agents, veterinary agents, agricultural agents, diagnostic reagents, and the like.
To verify that the compounds produced could be used directly in a biological assay, the crude benzodiazepines are tested for activity in a benzodiazepine receptor binding assay without further purification. (The assay was performed using the commercially available NovaScreen® assay system contracted by Scios-Nova Pharmaceutical Corp., Baltimore, Md., whereby bovine cortical membrane preparations were used as the source of receptor and the radioligand employed was [^3 H]Flunitrazipam while the positive control was Clonazepam.) The calculated IC50 's from three concentrations (average of two determinations) for the individual compounds are shown in Table 3.

Compound | IC50
CN1C(=O)CN=C(c2ccccc2)c2cc(Cl)ccc21 [Diazepam, reference compound] | 0.00067 µM

Same assay, conditions: crude benzodiazepines without further purification; bovine cortical membranes; [3H]Flunitrazipam; calculated from three concentrations (average of two determinations)

Compound | IC50
CC1N=C(c2ccccc2)c2cc([N+](=O)[O-])ccc2NC1=O (stereo not drawn) [Number 4] | 0.482 µM
Cc1ccc2c(c1)N(C(C)C)C(=O)CN=C2c1ccccc1 [Number 13] | 18.6 µM
O=C1CN=C(c2ccccc2)c2ccccc2N1 [Number 9] | 0.515 µM
O=C1Nc2ccc([N+](=O)[O-])cc2C(c2ccccc2)=NC1Cc1c[nH]c2ccccc12 (stereo not drawn) [Number 20] | 12.7 µM
O=C1CN=C(c2ccccc2)c2cc(Cl)ccc2N1 [Number 10] | 0.032 µM
O=C1CN=C(c2cccs2)c2ccccc2N1 [Number 16] | 1.12 µM
O=C1CN=C(C2CCCCC2)c2ccccc2N1 [Number 15] | 25.7 µM
CC1N=C(c2ccccc2)c2ccccc2NC1=O (stereo not drawn) [Number 1] | 5.79 µM
CC1N=C(c2cccs2)c2ccccc2NC1=O (stereo not drawn) [Number 8] | 5.9 µM
CC1N=C(c2ccccc2)c2cc(Cl)ccc2NC1=O (stereo not drawn) [Number 2] | 0.089 µM
COc1ccc(C2=NCC(=O)Nc3ccccc32)cc1 [Number 11] | 28.3 µM
CC1N=C(c2ccccc2)c2cc([N+](=O)[O-])ccc2N(C)C1=O (stereo not drawn) [Number 6] | 1 µM
O=C1CN=C(c2ccccc2)c2cc([N+](=O)[O-])ccc2N1 [Number 12] | 0.016 µM
CN1C(=O)CN=C(c2ccccc2)c2cc([N+](=O)[O-])ccc21 [Number 14] | 0.064 µM

Same assay, conditions: crude benzodiazepines without further purification; bovine cortical membranes; [3H]Flunitrazipam; cells that print their own unit mM

Compound | IC50
CC1N=C(C2CCCCC2)c2ccccc2NC1=O (stereo not drawn) [Number 7] | > 1000 µM
COc1ccc(C2=NC(C)C(=O)Nc3ccccc32)cc1 (stereo not drawn) [Number 3] | > 1000 µM
O=C1Nc2ccccc2C(c2ccccc2)=NC1Cc1c[nH]c2ccccc12 (stereo not drawn) [Number 17] | > 1000 µM
COc1ccc(C2=NC(Cc3c[nH]c4ccccc34)C(=O)Nc3ccccc32)cc1 (stereo not drawn) [Number 19] | > 1000 µM
O=C1Nc2ccc(Cl)cc2C(c2ccccc2)=NC1Cc1c[nH]c2ccccc12 (stereo not drawn) [Number 18] | > 1000 µM
Cc1ccc2c(c1)N(C(C)C)C(=O)C(C)N=C2c1ccccc1 (stereo not drawn) [Number 5] | > 1000 µM
